Experimental data from publication PMC11053857, “Synthesis, In Vitro Biological Evaluation and Molecular Modeling of Benzimidazole-Based Pyrrole/Piperidine Hybrids Derivatives as Potential Anti-Alzheimer Agents” (Pharmaceuticals, 2024).
Like-named read-outs stand apart in the source and are kept apart here.

What was measured:
[1] = biological target: butyrylcholinesterase (BuChE) (Homo sapiens, UniProt P06276); experiment: biochemical; details: in vitro, 25 °C, pH 8.0, triplicate, standards listed separately for series 1–13 and 14–26
butyrylcholinesterase (BuChE), sequence (P06276 29-602): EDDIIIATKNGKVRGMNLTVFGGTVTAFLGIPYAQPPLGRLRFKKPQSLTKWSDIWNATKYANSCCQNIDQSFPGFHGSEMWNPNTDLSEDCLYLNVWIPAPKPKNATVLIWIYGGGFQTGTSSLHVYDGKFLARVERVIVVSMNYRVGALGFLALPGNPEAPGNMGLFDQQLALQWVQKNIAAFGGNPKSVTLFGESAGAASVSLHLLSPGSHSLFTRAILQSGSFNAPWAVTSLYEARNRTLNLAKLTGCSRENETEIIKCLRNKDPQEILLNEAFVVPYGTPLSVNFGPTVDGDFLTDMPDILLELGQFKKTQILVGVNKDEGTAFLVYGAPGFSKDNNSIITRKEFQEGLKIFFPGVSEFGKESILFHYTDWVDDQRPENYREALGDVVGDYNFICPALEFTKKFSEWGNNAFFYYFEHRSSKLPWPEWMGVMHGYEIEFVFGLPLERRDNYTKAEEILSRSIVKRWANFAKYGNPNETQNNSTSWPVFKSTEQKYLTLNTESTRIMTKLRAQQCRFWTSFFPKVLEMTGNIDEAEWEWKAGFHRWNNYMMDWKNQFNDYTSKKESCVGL
Protocol: (§1) The enzyme inhibition activities for acetylcholinesterase and butyrylcholinesterase were determined using the method of Ellman et al. with slight modifications. The 62.0 mM sodium phosphate buffer (pH 8.0, 880 μL) used contained 0.002 M of DTNB (5,5′-dithiobis-2-nitrobenzoic acid). AChE and BuChE solutions (40 μL) were added with the test compounds (40 μL) and kept at 25 °C for 10–15 min. The acetylthiocholine or butyrylthiocholine (40 μL) were added just before the initiation of the catalytic reaction. The enzymatic hydrolysis of the substrates encompassing the formation of yellow 5-thio-2-nitrobenzoate anion products was monitored at 412 nm (15 min). The inhibition reactions were repeated in triplicate with a Shimadzu spectrophotometer (Kyoto, Japan).

[2] = biological target: acetylcholinesterase (AChE) (Homo sapiens, UniProt P22303); experiment: biochemical
acetylcholinesterase (AChE), sequence (P22303 32-614, species assumed): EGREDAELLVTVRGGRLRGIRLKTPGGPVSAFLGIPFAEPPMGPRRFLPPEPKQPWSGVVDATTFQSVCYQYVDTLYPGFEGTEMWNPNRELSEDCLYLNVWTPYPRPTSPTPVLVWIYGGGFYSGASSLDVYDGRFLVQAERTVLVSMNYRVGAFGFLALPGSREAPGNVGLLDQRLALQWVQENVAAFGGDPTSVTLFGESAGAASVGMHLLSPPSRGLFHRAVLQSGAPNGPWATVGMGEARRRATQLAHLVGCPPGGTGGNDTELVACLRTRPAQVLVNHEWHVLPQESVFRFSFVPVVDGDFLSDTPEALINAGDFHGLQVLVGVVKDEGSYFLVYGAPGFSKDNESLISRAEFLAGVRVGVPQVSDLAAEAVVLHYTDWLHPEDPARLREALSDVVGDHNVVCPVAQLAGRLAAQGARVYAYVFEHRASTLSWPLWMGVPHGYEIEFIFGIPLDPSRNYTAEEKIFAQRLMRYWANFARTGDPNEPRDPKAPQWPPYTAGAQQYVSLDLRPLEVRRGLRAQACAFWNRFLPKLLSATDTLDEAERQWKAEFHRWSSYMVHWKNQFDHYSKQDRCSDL
Protocol: as §1, with “The enzymatic hydrolysis of the substrates encompassing the formation of yellow 5-thio-2-nitrobenzoate anion products was monitored at 412 nm (15 min).” left out

[3] = read-out: BuChE Inhibition IC50 ± SEM
[4] = in vitro, 25 °C, pH 8.0, triplicate, standards listed separately for series 1–13 and 14–26, read-out: AChE Inhibition IC50 ± SEM

| SMILES | IC50 [1, 3] [µM] | IC50 [2, 4] [µM] | IC50 ([1]; BuChE Inhibition IC50 ± SEM) [µM] | IC50 [2] [µM] |
| --- | --- | --- | --- | --- |
| Cc1ccc(/C(CSc2nc3cc([N+](=O)[O-])ccc3[nH]2)=N\N=C\N2CCCCC2)cc1 [Compound 25, 5-nitro-2-(((E)-2-(((E)-piperidin-1-ylmethylene)hydrazono)-2-(p-tolyl)ethyl)thio)-1H-benzo[d]imidazole] | 32.25 ± 0.12 | 35.01 ± 0.25 | – | – |
| Cc1ccc(/C(CSc2nc3ccccc3[nH]2)=N\N=C\N2CCCCC2)cc1 [Compound 19, 2-(((E)-2-(((E)-piperidin-1-ylmethylene)hydrazono)-2-(p-tolyl)ethyl)thio)-1H-benzo[d]imidazole] | 36.22 ± 0.11 | 33.19 ± 0.09 | – | – |
| COc1ccc2[nH]c(SC/C(=N/N=C/N3CCCCC3)c3ccc(C)cc3)nc2c1 [Compound 18, 5-methoxy-2-(((E)-2-(((E)-piperidin-1-ylmethylene)hydrazono)-2-(p-tolyl)ethyl)thio)-1H-benzo[d]imidazole] | 39.11 ± 0.13 | 36.15 ± 0.03 | – | – |
| C(=N\N=C(\CSc1nc2ccccc2[nH]1)c1ccc(-c2ccccc2)cc1)/c1cc[nH]c1 [Compound 5, 2-(((E)-2-(((E)-(1H-pyrrol-3-yl)methylene)hydrazono)-2-([1,1′-biphenyl]-4-yl)ethyl)thio)-1H-benzo[d]imidazole] | 37.21 ± 0.23 | 34.16 ± 0.03 | – | – |
| COc1ccc2[nH]c(SC/C(=N/N=C/N3CCCCC3)c3ccc(-c4ccccc4)cc3)nc2c1 [Compound 14, 2-(((E)-2-([1,1′-biphenyl]-4-yl)-2-(((E)-piperidin-1-ylmethylene)hydrazono)ethyl)thio)-5-methoxy-1H-benzo[d]imidazole] | 47.03 ± 0.15 | 42.01 ± 0.02 | – | – |
| COc1ccc(/C(CSc2nc3cc([N+](=O)[O-])ccc3[nH]2)=N\N=C\c2cc[nH]c2)cc1 [Compound 12] | 27.35 ± 0.06 | 23.1 ± 0.35 | – | – |
| COc1ccc(/C(CSc2nc3ccccc3[nH]2)=N\N=C\N2CCCCC2)cc1 [Compound 22, 2-(((E)-2-(4-methoxyphenyl)-2-(((E)-piperidin-1-ylmethylene)hydrazono)ethyl)thio)-1H-benzo[d]imidazole] | 34.31 ± 0.12 | 34.02 ± 0.11 | – | – |
| COc1ccc2[nH]c(SC/C(=N/N=C/N3CCCCC3)c3cccc([N+](=O)[O-])c3)nc2c1 [Compound 17, 5-methoxy-2-(((E)-2-(3-nitrophenyl)-2-(((E)-piperidin-1-ylmethylene)hydrazono)ethyl)thio)-1H-benzo[d]imidazole] | 27.3 ± 0.5 | 23.1 ± 0.41 | – | – |
| O=[N+]([O-])c1ccc2[nH]c(SC/C(=N/N=C/c3cc[nH]c3)c3ccc(-c4ccccc4)cc3)nc2c1 [Compound 11, 2-(((E)-2-(((E)-(1H-pyrrol-3-yl)methylene)hydrazono)-2-([1,1′-biphenyl]-4-yl)ethyl)thio)-5-nitro-1H-benzo[d]imidazole] | 37.76 ± 0.08 | 32.13 ± 0.18 | – | – |
| O=[N+]([O-])c1cccc(/C(CSc2nc3cc([N+](=O)[O-])ccc3[nH]2)=N\N=C\c2cc[nH]c2)c1 [Compound 10, 2-(((E)-2-(((E)-(1H-pyrrol-3-yl)methylene)hydrazono)-2-(3-nitrophenyl)ethyl)thio)-5-nitro-1H-benzo[d]imidazole] | – | – | 21.6 ± 0.61 | 19.4 ± 0.6 |
| COc1ccccc1/C(CSc1nc2ccccc2[nH]1)=N\N=C\N1CCCCC1 [Compound 21, 2-(((E)-2-(2-methoxyphenyl)-2-(((E)-piperidin-1-ylmethylene)hydrazono)ethyl)thio)-1H-benzo[d]imidazole] | 38.02 ± 0.04 | 30.1 ± 0.41 | – | – |
| COc1ccc(/C(CSc2nc3cc(OC)ccc3[nH]2)=N\N=C\c2cc[nH]c2)cc1 [Compound 2, 2-(((E)-2-(((E)-(1H-pyrrol-3-yl)methylene)hydrazono)-2-(4-methoxyphenyl)ethyl)thio)-5-methoxy-1H-benzo[d]imidazole] | 23.22 ± 0.15 | 20.04 ± 0.15 | – | – |
| COc1ccc2[nH]c(SC/C(=N/N=C/c3cc[nH]c3)c3ccc(-c4ccccc4)cc3)nc2c1 [Compound 3, 2-(((E)-2-(((E)-(1H-pyrrol-3-yl)methylene)hydrazono)-2-([1,1′-biphenyl]-4-yl)ethyl)thio)-5-methoxy-1H-benzo[d]imidazole] | 34.06 ± 0.14 | 30.11 ± 0.23 | – | – |
| COc1ccc(/C(CSc2nc3ccccc3[nH]2)=N\N=C\c2cc[nH]c2)cc1 [Compound 9, 2-(((E)-2-(((E)-(1H-pyrrol-3-yl)methylene)hydrazono)-2-(4-methoxyphenyl)ethyl)thio)-1H-benzo[d]imidazole] | 28.01 ± 0.13 | 24.16 ± 0.21 | – | – |
| COc1ccc(/C(CSc2nc3cc([N+](=O)[O-])ccc3[nH]2)=N\N=C\N2CCCCC2)cc1 [Compound 24, 2-(((E)-2-(4-methoxyphenyl)-2-(((E)-piperidin-1-ylmethylene)hydrazono)ethyl)thio)-5-nitro-1H-benzo[d]imidazole] | 39.66 ± 0.24 | 32.05 ± 0.14 | – | – |
| COc1ccc2[nH]c(SC/C(=N/N=C/c3cc[nH]c3)c3ccccc3OC)nc2c1 [Compound 4, 2-(((E)-2-(((E)-(1H-pyrrol-3-yl)methylene)hydrazono)-2-(2-methoxyphenyl)ethyl)thio)-5-methoxy-1H-benzo[d]imidazole] | 29.2 ± 0.8 | 26.2 ± 0.41 | – | – |
| O=[N+]([O-])c1cccc(/C(CSc2nc3ccccc3[nH]2)=N\N=C\N2CCCCC2)c1 [Compound 20, 2-(((E)-2-(3-nitrophenyl)-2-(((E)-piperidin-1-ylmethylene)hydrazono)ethyl)thio)-1H-benzo[d]imidazole] | 31.25 ± 0.03 | 29.04 ± 0.22 | – | – |
| O=[N+]([O-])c1cccc(/C(CSc2nc3ccccc3[nH]2)=N\N=C\c2cc[nH]c2)c1 [Compound 6, 2-(((E)-2-(((E)-(1H-pyrrol-3-yl)methylene)hydrazono)-2-(3-nitrophenyl)ethyl)thio)-1H-benzo[d]imidazole] | 32.14 ± 0.21 | 28.12 ± 0.09 | – | – |
| COc1ccc(/C(CSc2nc3cc(OC)ccc3[nH]2)=N\N=C\N2CCCCC2)cc1 [Compound 16, 5-methoxy-2-(((E)-2-(4-methoxyphenyl)-2-(((E)-piperidin-1ylmethylene) hydrazono)ethyl)thio)-1H-benzo[d]imidazole] | 30.01 ± 0.23 | 28.13 ± 0.23 | – | – |
| COc1ccc2[nH]c(SC/C(=N/N=C/c3cc[nH]c3)c3ccc(C)cc3)nc2c1 [Compound 1, 2-(((E)-2-(((E)-(1H-pyrrol-3-yl)methylene)hydrazono)-2-(p-tolyl)ethyl)thio)-5-methoxy-1H-benzo[d]imidazole] | 31.03 ± 0.11 | 27.11 ± 0.02 | – | – |
| Cc1ccc(/C(CSc2nc3cc([N+](=O)[O-])ccc3[nH]2)=N\N=C\c2cc[nH]c2)cc1 [Compound 13, 2-(((E)-2-(((E)-(1H-pyrrol-3-yl)methylene)hydrazono)-2-(p-tolyl)ethyl)thio)-5-nitro-1H-benzo[d]imidazole] | 33.3 ± 0.42 | 27.08 ± 0.25 | – | – |
| COc1ccc2[nH]c(SC/C(=N/N=C/N3CCCCC3)c3ccccc3OC)nc2c1 [Compound 15, 5-methoxy-2-(((E)-2-(2-methoxyphenyl)-2-(((E)-piperidin-1-ylmethylene)hydrazono)ethyl)thio)-1H-benzo[d]imidazole] | 29.11 ± 0.14 | 26.03 ± 0.15 | – | – |
| O=[N+]([O-])c1ccc2[nH]c(SC/C(=N/N=C/N3CCCCC3)c3ccc(-c4ccccc4)cc3)nc2c1 [Compound 23] | 42.27 ± 0.41 | 38.2 ± 0.4 | – | – |
| COc1ccccc1/C(CSc1nc2ccccc2[nH]1)=N\N=C\c1cc[nH]c1 [Compound 8, 2-(((E)-2-(((E)-(1H-pyrrol-3-yl)methylene)hydrazono)-2-(2-methoxyphenyl)ethyl)thio)-1H-benzo[d]imidazole] | 25.1 ± 0.44 | 21.03 ± 0.11 | – | – |
| Cc1ccc(/C(CSc2nc3ccccc3[nH]2)=N\N=C\c2cc[nH]c2)cc1 [Compound 7, 2-(((E)-2-(((E)-(1H-pyrrol-3-yl)methylene)hydrazono)-2-(p-tolyl)ethyl)thio)-1H-benzo[d]imidazole] | 39.55 ± 0.03 | 36 ± 0.41 | – | – |
